From EP4644391A1, “NOVEL PHENYLQUINOLONE COMPOUND HAVING ANTIBACTERIAL AND ANTICANCER FUNCTIONS, AND PREPARATION THEREOF” (Alphamol Science Ltd (Shanghai), priority 2022, dated 2024) come the findings set out here.

The term IC50 denotes the point on the concentration scale where inhibition reaches its midpoint. Usually MIC stands for the lowest concentration found to suppress growth.

Test [1] concerns human breast cancer cell MCF-7. Briefly: In vitro anticancer activity test (MTT cell proliferation assay). The test is classed as cell-based. To be noted: MCF7. On the procedure:
The anticancer activity of the compounds was tested using an in vitro cancer cell tests. The specific test method is as follows: • 1. Cell recovery and culture method: the cryovial was taken out from the liquid nitrogen container firstly, soaked directly in 37°C warm water, and shaked from time to time to let it thaw as soon as possible. Then, the cryovial was transferred to a clean bench, and the lid was open. […] Then, the supernatant was discarded, complete culture medium containing 10% fetal bovine serum was added to resuspend the cells, the cells was counted, the cell density was adjusted, and then inoculated into a culture bottle. The culture bottle was placed in a cell culture incubator at 5% CO2 and 37°C. The complete culture medium was replaced once the next day and the culture was continued. • 2. Cell passaging method: adherent cells in the logarithmic growth phase were placed in a clean bench, the original culture medium was discarded, and washed three times with 1×PBS. An appropriate amount of 0.25% trypsin digestion solution was added to moisten the cells, and then the trypsin solution was aspirated. […] When 90% of the cells become round, the cells were moved immediately to the clean bench and complete culture medium was added to terminate digestion. Then, the cells were dislodged by pipetting up and down with a rubber-tipped dropper to single cells. The cells were counted, and the cell density was adjusted. The cells were inoculated into a suitable culture bottle or dish, added enough complete culture medium, and placed in a cell culture incubator at 5% CO2 and 37°C for static culture. For suspension cells in the logarithmic phase, the original culture medium was directly centrifuged at 50g for 5 minutes, the supernatant was discarded, and the cells were washed once with PBS and centrifuged. After discarding the supernatant, the complete culture medium was added and the cells were dispersed using a rubber-tipped dropper. The cells are counted, and the cell density was adjusted. […]

Test [2] has as its system Staphylococcus aureus ATCC43300. Briefly: Systemic blood infection animal model. The test is classed as in vivo, mice. The settings on record: for number of colonies of organs (liver and kidney), antibacterial effect: 4 mg/kg, oral gavage 3 times a day for 7 days (positive drug given as ciprofloxacin hydrochloride). On the procedure:
Mice were administered by oral gavage with the drug solvent for the model group and the blank group. • (5) 8 h after the last administration, mice were euthanized by cervical dislocation, disinfected with 75% alcohol, and then necropsied under sterile conditions. The kidneys and livers were harvested, observed and photographed, and the weight was recorded. • (6) The kidneys and livers were placed in a sterile glass grinder and sterile PBS in a volume ten times the weight of the organs was added and grinded. The grinding solutions were taken out, 10-fold serially diluted, smeared to a TSA solid culture medium, and incubated at 37°C for 16 hours, then the colonies were counted. The number of colonies of the organs was calculated to evaluate the therapeutic effect.

For a further test, the system named is E. feacium ATCC 700221. Nature of the test: In vitro antibacterial activity assay (MIC, broth dilution). The test is classed as cell-based. To be noted: Table 1; 37°C, 16 hours; read-out: G+ bacteria MIC E. feacium ATCC 700221. The source says:
(§1) The method used to indicate the activity of the compounds in this example is to record the minimum inhibitory concentration (MIC) of the compounds against bacteria. The specific experimental method is as follows: • 1. The bacterial liquid cultured from a single colony was taken, and diluted into autoclaved CAMHB broth in a ratio of 1:1000, and mixed well. • 2. The prepared drug solution was filtered through a sterile 0.22µm syringe filter and placed in a sterile EP tube for later use. • 3. A 96-well plate was taken, and 20µL of drug solution (400µg/mL) was added to each well in the first column of the 96-well plate. Then, 180µL of diluted bacterial liquid was added and mixed well (Perform 3 replicate rows for each drug). The same process was performed for the hydrochloride drug. • 4. 100 µL of diluted bacterial liquid was added to each well in the remaining 11 columns of the 96-well plate. Drugs are the same as above. • 5. Serial dilution: 100µL of liquid was taken from the first column to the second column, mixed well, then 100µL of liquid was taken from the second column to the third column, mixed well, and so on, sequentially diluting down to the last column (column 12). After mixing column 12 well, 100µL of liquid thereof was discarded. The drug concentration in each well was decreased by two-fold serially (the concentration in the first well is 40µg/mL). • 6. Blank CAMHB broth without added bacteria liquid was added to 3 blank wells in the 96-well plate, as negative control. • 7. The diluted bacterial liquid was added to 3 blank wells in the 96-well plate, as positive control. • 8. Incubated at 37°C for 16 hours. • 9. Results reading: the minimum inhibitory concentration is the minimum drug concentration at which no bacterial growth is visible to the naked eye and without turbidity.
On the technique in general: In broth dilution the organism is exposed to a series of concentrations in liquid medium.

A further test relates to E. coli ATCC 25922. The test is described as above. The test is classed as cell-based. The settings on record: Escherichia coli, ATCC25922.
Source text: as §1

Another test deals with S. aureus ATCC 43300. The description is as above. The test is classed as cell-based. To be noted: Staphylococcus aureus, ATCC43300.
Source text: as §1

The test system of the next test is A. baumannii ATCC 17978. The test is described as above. The test is classed as cell-based. The settings on record: Acinetobacter baumannii, ATCC17978; Table 2; 37°C, 16 hours; read-out: G- bacteria MIC A. baumannii ATCC 17978.
Source text: as §1

For another test, the system named is P.aeruginosa ATCC 27853. Described as above. The test is classed as cell-based. The settings on record: Pseudomonas aeruginosa, ATCC27853; Table 2; 37°C, 16 hours; read-out: G- bacteria MIC P.aeruginosa ATCC 27853.
Source text: as §1

[3] abbreviates: Table 2, 37°C, 16 hours, read-out: G- bacteria MIC E. coli ATCC 25922.
Where [4] appears, read: Table 1, 37°C, 16 hours, read-out: G+ bacteria MIC S. aureus ATCC 43300.

Converted amounts (≈) assume the structure as drawn. Read-outs that look alike come from different tables or passages of the source.

`CCN(CC)CCNC(=O)c1c(C)[nH]c(/C=C2\C(=O)Nc3ccc(F)cc32)c1C` [Sunitinib]: in test [1], 3.2 ± 0.3 µM corresponded to half-maximal inhibition (IC50).
Consider `O=C(O)c1cn(C2CC2)c2cc(N3CCNCC3)c(F)cc2c1=O` [Ciprofloxacin], for which, in test [2], the “number of colonies of organs (liver and kidney), antibacterial effect” value is recorded as “not apparent”. Besides, the MIC in the test on E. feacium ATCC 700221 is above 8 µg/mL; in the test on E. coli ATCC 25922 (setting [3]) it was 0.1 to 1 µg/mL (≈ 0.302 to 3.02 µM); in the test on S. aureus ATCC 43300 (setting [4]), 0.1 to 1 µg/mL (≈ 0.302 to 3.02 µM); with A. baumannii ATCC 17978, 0.1 to 1 µg/mL (≈ 0.302 to 3.02 µM); with P.aeruginosa ATCC 27853 it was 0.1 to 1 µg/mL (≈ 0.302 to 3.02 µM). In addition, the IC50 in test [1] was above 100 µM.
Take `O=C(O)c1cn(C2CC2)c2c(Cl)c(-c3ccc(S(=O)(=O)NCCCC(F)(F)F)nc3)c(F)cc2c1=O` [Example 29, 8-chloro-1-cyclopropyl-6-fluoro-4-oxo-7-(6-(N-(4,4,4-trifluorobutyl)sulfamoyl)pyridin-3-yl)-1,4-dihydroquinolin-3-carboxylic acid]: the “number of colonies of organs (liver and kidney) versus control group” value in test [2] (1 mg/kg, oral gavage 3 times a day for 7 days) is on record as “significant statistical difference from the control group”. Moreover, the “number of colonies of organs (liver and kidney), antibacterial effect” value in test [2] is listed as “huge difference”. In addition, in test [2] (oral gavage 3 times a day for 7 days, Figure 4), the “antibacterial effect in the liver and kidney (number of colonies) compared with ciprofloxacin” value was “very significant antibacterial effect”. The MIC is 1 to 8 µg/mL (≈ 1.83 to 14.6 µM) in the test on E. feacium ATCC 700221; at most 0.1 µg/mL in the test on E. coli ATCC 25922 (setting [3]); at most 1 µg/mL with E. coli ATCC 25922 (Table 3, read-out: E. coli ATCC 25922 MIC); at most 0.1 µg/mL with S. aureus ATCC 43300 (setting [4]); at most 1 µg/mL in the test on S. aureus ATCC 43300 (Table 3, read-out: S. aureus ATCC 43300 MIC); at most 0.1 µg/mL with A. baumannii ATCC 17978. Moreover, the MIC in the test with P.aeruginosa ATCC 27853 is at most 0.1 µg/mL. The IC50 in test [1] fell in the range of 1 to 10 µM.
